Experimental findings from US12268690B2, “Treatments for mutations in acute myeloid leukemia” (OREGON HEALTH & SCIENCE UNIVERSITY, priority 2018, dated 2025) are described below.

This assay relates to freshly isolated mononuclear cells from AML samples. In words: Ex vivo functional drug screen (MTS viability, AUC) on primary AML samples, compared by mutation or clinical group. The assay is classed as cell-based, human. The text has this: This panel contained graded concentrations of a drugs with activity against two-thirds of the tyrosine kinome as well as other non-tyrosine kinase pathways, including MAPKs, PI3K/AKT/mTOR, AMPK, ATM, Aurora kinases, CAMKs, CDKs, GSK3a/b, IκK, PKA, PKC, PLK1, and RAF. In addition, the library contained small molecule inhibitors with activity against the BCL2 family, BRD4, Hedgehog, HSP90, NOTCH/gamma-secretase, proteasome, survivin, STAT3, and WNT/beta-catenin. Drug sensitivity patterns were analyzed with respect to clinical and genetic features of tumors. We compared the average area-under-the curve (AUC) values for each drug between the de novo and transformed samples via a series of single factor ANOVAs. […] In addition, we analyzed the concordance of drug sensitivity patterns with respect to predicted target gene, gene family, or pathway for each drug. […] To create a global view of overall sensitivity or resistance of each case, we generated a heatmap of binary sensitive/resistant calls for each sample to each drug.
Correlation of drug sensitivity with mutational events was performed by assessing the range of sensitivity of cases with mutation of an individual gene (as well as co-occurring mutational events) versus cases with wild type sequence for that same gene. […] The difference in average drug sensitivity of mutant versus wild type cases for each drug/mutation pair was plotted on the horizontal axis of a volcano plot with a test for statistical significance of the comparison plotted on the vertical axis (corrected for multiple comparison false discovery rate^42; FIG. 4). […] To aid in discovery of potential mutational biomarkers of drug sensitivity, we plotted volcano plots that were specific to each individual drug (versus all possible mutational events) and for each individual gene (versus all possible drugs tested).
Ex vivo drug screens were performed on freshly isolated mononuclear cells from AML samples as previously described^41.
Ex vivo functional drug screens were performed on freshly isolated mononuclear cells from AML samples. […] Drug plates were created using inhibitors purchased from LC Laboratories and Selleck Chemicals and master stocks were reconstituted in DMSO and stored at −80° C. […] DMSO control wells and positive control wells containing a drug combination of Flavopiridol, Staurosporine and Velcade were placed on each plate, with the final concentration of DMSO ≤0.1% in all wells. Daughter plates were created using a V&P Scientific 384-well pin tool head operated by the Caliper Sciclone ALH 3000 and equipped with 0.457 mm diameter, 30 nanoliter, slotted stainless steel pins (cat num: FP1NS30). Daughter and destination plates were sealed with pealable thermal seals using a PlateLoc thermal sealer. Destination plates were stored at −20° C. for no more than three months and thawed immediately before use. Primary mononuclear cells were plated across single-agent inhibitor panels within 24 h of collection. […] After 3 d of culture at 37° C. in 5% CO2, MTS reagent (CellTiter96 AQueous One; Promega) was added, optical density was measured at 490 nm, and raw absorbance values were adjusted to a reference blank value and then used to determine cell viability (normalized to untreated control wells).
A given sample was run on one or more panels and within each panel, the majority of drugs were run without within-panel replicates. […] An additional set of ‘curve-free’ AUCs was computed for sample-inhibitor pairs run on multiple panels.
Based on the methodology used in our prior drug combination study^36, a probit regression was fit to all possible run groups using the model: (normalized_viability/100)˜1+log 10(concentration) Where for all groups there were N=7 dose-response measurements. The summary measures of curve fit were inspected and cutoffs were devised removing all runs with an AIC >12 and deviance >2.

Regarding `CC[C@H](CO)Nc1nc(NCc2ccccc2)c2ncn(C(C)C)c2n1` [Roscovitine], the “drug sensitivity mutant vs wild type (average difference in AUC; top left quadrant of volcano plot)” value was “roscovitine” (FLT3_ITD), “roscovitine” (NPM1:IDH1) and “Roscovitine” (ZRSR2).
With `CN(C)CC[C@H](CSc1ccccc1)Nc1ccc(S(=O)(=O)NC(=O)c2ccc(N3CCN(Cc4ccccc4-c4ccc(Cl)cc4)CC3)cc2)cc1[N+](=O)[O-]` [ABT-737], for the setting “PML.RARA”, the “drug sensitivity mutant vs wild type (average difference in AUC; top left quadrant of volcano plot)” value was “ABT-737”.
Consider `Cn1c2ccccc2c2c3c(c4c5ccccc5n(CCC#N)c4c21)CNC3=O` [Go6976], for which, for the setting “CBFB.MYH11”, the “drug sensitivity mutant vs wild type (average difference in AUC; top left quadrant of volcano plot)” value is recorded as “Go6976”.
As for `CC(C)(C)c1cc(NC(=O)Nc2ccc(-c3cn4c(n3)sc3cc(OCCN5CCOCC5)ccc34)cc2)no1` [Quizartinib], the “drug sensitivity mutant vs wild type (average difference in AUC; top left quadrant of volcano plot)” value is, setting by setting: (NPM1) “quizartinib”; (NPM1:DNMT3A) “Quizartinib”; (NPM1:IDH2) “quizartinib”; (NPM1:SRSF2) “quizartinib”.
Consider `c1cn2cc(-c3ccc4cn[nH]c4c3)nc(Nc3ccc(N4CCOCC4)cc3)c2n1` [Entospletinib, 6-(1H-indazol-6-yl)-N-(4-morpholin-4-ylphenyl)imidazo[1,2-a]pyrazin-8-amine], for which the “drug sensitivity mutant vs wild type (average difference in AUC; top left quadrant of volcano plot)” value (DNMT3A) was “Entospletinib”; the “drug sensitivity mutant vs wild type (average difference in AUC; top left quadrant of volcano plot)” value (DNMT3A:IDH2) was “Entospletinib (GS-9973)”; the “drug sensitivity mutant vs wild type (average difference in AUC; top left quadrant of volcano plot)” value (IDH2) was “Entospletinib”; the “drug sensitivity mutant vs wild type (average difference in AUC; top left quadrant of volcano plot)” value (NPM1) is recorded as “Entospletinib”; the “drug sensitivity mutant vs wild type (average difference in AUC; top left quadrant of volcano plot)” value (NPM1:DNMT3A) is given as “Entospletinib”; the “drug sensitivity mutant vs wild type (average difference in AUC; top left quadrant of volcano plot)” value (NPM1:IDH1) is listed as “entospletinib”. The “drug sensitivity mutant vs wild type (average difference in AUC; top left quadrant of volcano plot)” value (NPM1:IDH2) was “entospetinib”, the “drug sensitivity mutant vs wild type (average difference in AUC; top left quadrant of volcano plot)” value (NPM1:SRSF2) is “entospetinib” and the “drug sensitivity mutant vs wild type (average difference in AUC; top left quadrant of volcano plot)” value (NPM1:TET2: DNMT3A) was “Entospetinib”. The “pattern of drug sensitivity” value (cases with FLT3-ITD and NPM1) is given as “similarly significant pattern of sensitivity”.
Take `CNC(=O)c1cc(Oc2ccc(NC(=O)Nc3ccc(Cl)c(C(F)(F)F)c3)c(F)c2)ccn1` [Regorafenib]: the “drug sensitivity mutant vs wild type (average difference in AUC; top left quadrant of volcano plot)” value is, setting by setting: (FLT3_ITD) “regorafenib”; (NPM1) “Regorafenib”; (NPM1:DNMT3A) “Regorafenib”; (NPM1:FLT3_ITD) “regorafenib”; (NPM1:FLT3_ITD:DNMT3A) “regorafenib”; (NPM1:IDH2) “regorafenib”. The “drug sensitivity mutant vs wild type (average difference in AUC; top left quadrant of volcano plot)” value is, setting by setting: (NPM1:SRSF2) “regorafenib”; (NPM1:TET2: DNMT3A) “Regorafenib”.
In the case of `C[C@H](NC(=O)Cc1cc(F)cc(F)c1)C(=O)N[C@@H]1C(=O)N(C)c2ccccc2-c2ccccc21` [DBZ, N-[(1S)-2-[[(7S)-6,7-Dihydro-5-methyl-6-oxo-5H-dibenz[b,d]azepin-7-yl]amino]-1-methyl-2-oxoethyl]-3,5-difluorobenzeneacetamide], the “drug sensitivity mutant vs wild type (average difference in AUC; top left quadrant of volcano plot)” value (FLT3_ITD:IDH1) was “DBZ”; the “drug sensitivity mutant vs wild type (average difference in AUC; top left quadrant of volcano plot)” value (IDH2) is “DBZ”; the “drug sensitivity mutant vs wild type (average difference in AUC; top left quadrant of volcano plot)” value (NPM1) is “DBZ”; the “drug sensitivity mutant vs wild type (average difference in AUC; top left quadrant of volcano plot)” value (NPM1:IDH2) is listed as “DBZ”; the “drug sensitivity mutant vs wild type (average difference in AUC; top left quadrant of volcano plot)” value (NPM1:SRSF2) is “DBZ”; the “drug sensitivity mutant vs wild type (average difference in AUC; top left quadrant of volcano plot)” value (NPM1:SRSF2:IDH2) is “DBZ”.
With `Cc1ccc2nc(NCCN)c3ncc(C)n3c2c1` [BMS-345541, N′-(1,8-dimethyl-4-imidazo[1,2-a]quinoxalinyl)ethane-1,2-diamine], the “drug sensitivity mutant vs wild type (average difference in AUC; top left quadrant of volcano plot)” value (PDS5B) is reported as “BMS-345541”.
With `CS(=O)(=O)c1ccc(C(=O)Nc2ccc(Cl)c(-c3ccccn3)c2)c(Cl)c1` [Vismodegib], for the setting “WT1”, the “drug sensitivity mutant vs wild type (average difference in AUC; top left quadrant of volcano plot)” value was “Vismodegib”.
With `COc1cc(Oc2ccnc3cc(OC)c(OC)cc23)ccc1NC(=O)NC(C)c1nccs1` (stereo not shown) [KI20227], the “drug sensitivity mutant vs wild type (average difference in AUC; top left quadrant of volcano plot)” value (NPM1:SRSF2:IDH2) is listed as “KI20227”.
Regarding `O=c1cc(-c2cccc3c2Sc2ccccc2S3)oc(N2CCOCC2)c1` [KU-55933], the “drug sensitivity mutant vs wild type (average difference in AUC; top left quadrant of volcano plot)” value (ZRSR2) was “KU-55933”.
As for `CN1CC[C@H](c2c(O)cc(O)c3c(=O)cc(-c4ccccc4Cl)oc23)[C@H](O)C1` [Flavopiridol], the “drug sensitivity mutant vs wild type (average difference in AUC; top left quadrant of volcano plot)” value (NRAS) is “(GSK1120212), or Flavopiridol”.
`CC(C)(C)c1cnc(CSc2cnc(NC(=O)C3CCNCC3)s2)o1` [SNS-032]: the “drug sensitivity mutant vs wild type (average difference in AUC; top left quadrant of volcano plot)” value (ASXL1) is listed as “SNS-032 (BMS-387032)” and the “drug sensitivity mutant vs wild type (average difference in AUC; top left quadrant of volcano plot)” value (NPM1) was “SNS-032”.
Regarding `Cn1c(=O)n(-c2ccc(C(C)(C)C#N)cc2)c2c3cc(-c4cnc5ccccc5c4)ccc3ncc21` [BEZ2345], where the note is “RUNX1”, the “drug sensitivity mutant vs wild type (average difference in AUC; top left quadrant of volcano plot)” value is given as “BEZ2345”. The “correlation of mutation with drug sensitivity” value (mutation of RUNX1) is listed as “correlated with sensitivity”.
Take `CN(NC(=O)CC(=O)NN(C)C(=S)c1ccccc1)C(=S)c1ccccc1` [elesclemol]: the “drug sensitivity of mutant cases” value (TP53 mutant cases) is listed as “trended more sensitive”.
As for `CCOc1cc2ncc(C#N)c(Nc3ccc(F)c(Cl)c3)c2cc1NC(=O)/C=C/CN(C)C` [Pelitinib], the “drug sensitivity mutant vs wild type (average difference in AUC; top left quadrant of volcano plot)” value (FLT3_ITD) is on record as “pelitinib”, the “drug sensitivity mutant vs wild type (average difference in AUC; top left quadrant of volcano plot)” value (NPM1) is given as “Pelitinib” and the “drug sensitivity mutant vs wild type (average difference in AUC; top left quadrant of volcano plot)” value (NPM1:FLT3_ITD) is recorded as “pelitinib”.
As to JAK Inhibitor I, the “sensitivity to JAK kinase inhibitors, mutant versus wild type (average AUC difference, one-way ANOVA)” value is listed as “no difference in sensitivity” (BCOR mutation alone or co-mutation of BCOR with DNMT3A or SRSF2) and “increased sensitivity” (co-mutation of BCOR with RUNX1).
In the case of `COc1cc2nccc(Oc3ccc(NC(=O)NC4CC4)c(Cl)c3)c2cc1C(N)=O` [Lenvatinib], the “drug sensitivity mutant vs wild type (average difference in AUC; top left quadrant of volcano plot)” value runs as follows: (DNMT3A) “Lenvatinib”; (FLT3_ITD) “lanvatinib”; (IDH2) “Lenvatinib”; (NPM1) “Levatinib”; (NPM1:DNMT3A) “Lenvatinib”; (NPM1:DNMT3A:FLT3) “lenvantinib”. The “drug sensitivity mutant vs wild type (average difference in AUC; top left quadrant of volcano plot)” value (NPM1:FLT3_ITD) is given as “lenvatinib”, the “drug sensitivity mutant vs wild type (average difference in AUC; top left quadrant of volcano plot)” value (NPM1:IDH2) was “lenvatinib”, the “drug sensitivity mutant vs wild type (average difference in AUC; top left quadrant of volcano plot)” value (NPM1:SRSF2) is listed as “lenvatinib” and the “drug sensitivity mutant vs wild type (average difference in AUC; top left quadrant of volcano plot)” value (NPM1:TET2: DNMT3A) is given as “Lenvatinib”.
